In patent US11834663B2, “Fibrotic treatment” (Monash University, priority 2015, dated 2023):
Marks after values point to notes of the source that are not given here.

System: cardiac cytokine protein levels
Test: Cardiac cytokine protein levels by Bio-Plex multiplex assay in aged WT mice
Format: in vivo, mouse
Experimental: There are 8 different sets of in vivo experiments in this study: • A) Phenotypic characterisation of the heart and blood vessels in global IRAP knockout mice and their WT controls treated for 4 weeks with Angiotensin (Ang) II (800 ng/kg/min; s.c.) where mouse hearts and blood vessels were compared to tissue obtained from young WT and IRAP^−/− mice treated with saline. • B) Prevention of Ang II-induced changes in the cardiovascular system following IRAP inhibitor treatment. In the prevention model, WT mice were treated with Ang II (800 ng/kg/min; s.c.)±the IRAP inhibitor (HFI-419; 500 ng/kg/min for 28 days) or HFI-vehicle (1 DMSO:3 HBC). • C) Phenotypic characterisation of the aged heart, kidney and blood vessels in the global IRAP knockout mice where aged WT and IRAP^−/− mouse hearts, kidneys and blood vessels were compared to tissue obtained from young WT and IRAP^−/− mice. • D) Reversal of the age-induced changes in the cardiovascular system following IRAP inhibitor treatment. In the reversal model, aged WT mice were treated with either saline, IRAP inhibitor (HFI-419 at 500 ng/kg/min; compound 1 at 500 ng/kg/min; compound 2 at 50 ng/kg/min) or HFI-vehicle (1 DMSO: 3 HBC) for 4 weeks. • E) Prevention of ischemic-reperfusion injury in isolated hearts taken from aged global IRAP knockout mice and aged IRAP inhibitor (HFI-419 at 500 ng/kg/min; s.c.) treated WT mice compared to age-matched vehicle-treated (1 DMSO:3 HBC; s.c.) WT controls. • F) Phenotypic characterization of cardiac function using echocardiography in the aged global IRAP knockout mice compared to aged and young WT mice. • G) Phenotypic characterization of liver steatosis in IRAP knockout mice in a high fat diet (HFD) model. • H) Reversal of the salt-induced fibrosis in the liver following IRAP inhibitor treatment.
The levels of cytokines in the heart ventricles and apex were detected by using the Bio-Plex multiplex assay (Bio-rad). Tissues were snap-frozen and homogenized with a Bio-Plex cell lysis kit (Biorad) according to the manufacturer's instructions. Briefly, tissues were washed once with 300 μl of wash buffer and homogenized in lysing solutions using Tissue Lyser (Qiagen). Samples were left on ice for 30 min and centrifuged at 6,000×g for 20 min at 4° C. Supernatant was collected and protein content was determined using Biorad protein assay (Biorad). 500 μg/ml of protein were used to detect the levels of cytokines. A panel of Bio-Plex Pro™ Mouse Cytokine Standard 23-Plex, Group I (IL-1α, IL-1β, IL-2, IL-3, IL-4, IL-5, IL-6, IL-9, IL-10, IL-12(p40), IL-12(p70), IL-13, IL-17A, Eotaxin, G-CSF, GM-CSF, IFN-γ, KC, MCP-1, MIP-1α, MIP-1β, RANTES, TNFα) was used, containing 23 different antibodies covalently coupled to the beads. 50 μl of sample (500 μg/ml) or known standard (200-900 μg/ml) was added to wells of a 96-well plate which was pre-coated with the diluted coupled beads specific for each antibody and incubated at RT with shaking at 300 RPM for 30 min in the dark. After washing away any unbound substances, biotinylated detection antibodies were added to create a sandwich complex and the plate was incubated for 30 min with shaking at 300 RPM in the dark at RT. Following three washes, the final detection complex was formed with the addition of streptavidin-phycoerythrin conjugate and incubated for 10 min in the dark at RT with shaking at 300 RPM. Following 3 washes with […], beads were resuspended in 125 μl of assay buffer. The samples were read using Bio-Plex MAGPIX Multiplex Reader (Bio-Plex Suspension System). Data were calculated by the Bio-Plex Manager software.

[1] = hearts of HFI-419-treated aged WT mice, mean ± s.e.m
[2] = relative ratio to mean of vehicle-treated aged WT

## CCOC(=O)C1=C(NC(C)=O)Oc2cc(O)ccc2C1c1cccnc1 (centres unmarked) [HFI-419]
Aged WT mice, HFI-419 4 weeks vs vehicle, FIG. 14, Table 1
  pro-inflammatory cytokines in heart: did not increase
Aged WT mice, HFI-419 4 weeks vs vehicle, Table 1
  anti-inflammatory cytokines in heart, including IL-4, IL-9 and IL-12p40: marked increases
[1]
  CCL-3 (MIP-1a) cardiac protein level: 2.493 ± 0.35 pg/mL
  CCL-4 (MIP-1b) cardiac protein level: 92.74 ± 10.92 pg/mL
  CCL-5 (RANTES) cardiac protein level: 2.839 ± 0.21 pg/mL
  CCL-11 (Eotaxin) cardiac protein level: 140.3 ± 8.18 pg/mL
  CXCL-1 (KC) cardiac protein level: 6.859 ± 0.34 pg/mL
  G-CSF cardiac protein level: 1.912 ± 0.08 pg/mL
  GM-CSF cardiac protein level: 38.18 ± 1.37 pg/mL
  IL-1a cardiac protein level: 7.61 ± 0.56 pg/mL
  IL-1b cardiac protein level: 69.83 ± 3.75 pg/mL
  IL-4 cardiac protein level: 2.676 ± 0.06 pg/mL
  IL-5 cardiac protein level: 3.96 ± 0.14 pg/mL
  IL-6 cardiac protein level: 2.766 ± 0.15 pg/mL
  IL-9 cardiac protein level: 557.8 ± 31.03 pg/mL
  IL-10 cardiac protein level: 40.13 ± 1.36 pg/mL
  IL-12 p40 cardiac protein level: 4.887 ± 0.28 pg/mL
  IL-12 p70 cardiac protein level: 23.49 ± 1.83 pg/mL
  IL-13 cardiac protein level: 90.19 ± 2.93 pg/mL
  IL-17A cardiac protein level: 8.068 ± 0.29 pg/mL
  L-2 cardiac protein level: 5.849 ± 0.78 pg/mL
  M-CSF (IL-3) cardiac protein level: 1.562 ± 0.11 pg/mL
  TNF-a cardiac protein level: 219.7 ± 9.76 pg/mL
[2]
  CCL-3 (MIP-1a) Ratio of HFI to Vehicle: 0.88
  CCL-4 (MIP-1b) Ratio of HFI to Vehicle: 0.78
  CCL-5 (RANTES) Ratio of HFI to Vehicle: 1.03
  CCL-11 (Eotaxin) Ratio of HFI to Vehicle: 1.29
  CXCL-1 (KC) Ratio of HFI to Vehicle: 1.18
  G-CSF Ratio of HFI to Vehicle: 1.02
  GM-CSF Ratio of HFI to Vehicle: 0.99
  IL-1a Ratio of HFI to Vehicle: 1.03
  IL-1b Ratio of HFI to Vehicle: 1.16
  IL-4 Ratio of HFI to Vehicle: 1.61**
  IL-5 Ratio of HFI to Vehicle: 0.98
  IL-6 Ratio of HFI to Vehicle: 0.98
  IL-9 Ratio of HFI to Vehicle: 1.19*
  IL-10 Ratio of HFI to Vehicle: 1.09
  IL-12 p40 Ratio of HFI to Vehicle: 1.31
  IL-12 p70 Ratio of HFI to Vehicle: 0.88
  IL-13 Ratio of HFI to Vehicle: 0.96
  IL-17A Ratio of HFI to Vehicle: 0.95
  L-2 Ratio of HFI to Vehicle: 1.12
  M-CSF (IL-3) Ratio of HFI to Vehicle: 1.02
  TNF-a Ratio of HFI to Vehicle: 0.92
